Measurements reported in publication PMC12449377, “Psychedelic-like effects induced by 2,5-dimethoxy-4-iodoamphetamine, lysergic acid diethylamide, and psilocybin in male and female C57BL/6J mice” (Psychopharmacology, 2025).
Like-named read-outs stand apart in the source and are kept apart here.

Key:
[1] = molecular target: T1, 5-HT2A (Mus musculus, UniProt P35363); assay: Competition binding vs [3H]M100907 in mouse brain membranes
T1 construct: tissue BioIVT; host or cells: whole C57BL/6 mouse brain minus cerebellum, male and female
T1 sequence (P35363 whole entry): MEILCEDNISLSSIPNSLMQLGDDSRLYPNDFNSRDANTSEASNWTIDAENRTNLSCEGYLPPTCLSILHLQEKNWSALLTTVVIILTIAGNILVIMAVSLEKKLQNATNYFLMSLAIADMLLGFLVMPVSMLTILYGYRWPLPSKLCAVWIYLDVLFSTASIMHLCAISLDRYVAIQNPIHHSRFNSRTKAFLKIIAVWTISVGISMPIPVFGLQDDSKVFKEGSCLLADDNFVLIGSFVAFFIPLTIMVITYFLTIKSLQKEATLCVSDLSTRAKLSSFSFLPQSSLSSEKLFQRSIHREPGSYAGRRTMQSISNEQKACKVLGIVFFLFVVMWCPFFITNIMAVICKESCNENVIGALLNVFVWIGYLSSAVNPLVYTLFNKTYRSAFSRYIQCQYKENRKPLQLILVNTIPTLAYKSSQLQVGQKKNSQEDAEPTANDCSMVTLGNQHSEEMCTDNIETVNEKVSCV
Description: Competition binding studies were conducted in mouse brain tissue as previously described (Glatfelter et al. [2022b]). Briefly, the experiments utilized membranes prepared from whole C57BL/6 mouse brain minus cerebellum (BioIVT, Westbury, NY, USA). […] We assessed the ability of test drugs to compete for [^3H]M100907 binding at 5-HT2A (1 nM) or [^3H]8-OH-DPAT binding at 5-HT1A (0.5 nM). Radioligands were purchased commercially (PerkinElmer, Boston, MA, USA). Nonspecific binding was determined using 10 µM ketanserin for 5-HT2A and serotonin for 5-HT1A. All data represent 3 experiments performed in triplicate.
(§1) Concentration-response data were fit to a single site non-linear regression model. For the HTR studies, potencies were determined from the ascending limb of the dose-response curves using ED50 potency values from [agonist] vs. response (variable slope, four parameter) least squares fit non-linear regression analyses, whereas efficacy was defined by the top output parameter or Emax from the aforementioned analyses. […] Best-fit values for ED50 and Emax from non-linear regression analyses were compared by extra sum-of-squares F tests. Mean effects for each behavioral endpoint were compared using two-way ANOVA (dose x sex), followed by Sidak’s multiple comparisons post-hoc test. Mean effects for pooled mouse behavioral data were compared via Welch’s ANOVA with Dunnett’s T3 post-hoc test, comparing all doses to saline vehicle controls (0 mg/kg). Alpha was set to 0.05 for all analyses.

[2] = system: C57BL/6J mice; assay: Head twitch response (HTR) in mice; assay type: in vivo, mouse; conditions: for HTR (total events) Mean: 30 min; for ED50: Mus musculus, sc
Description: Each drug was tested using groups of 12 mice per sex (i.e., 24 total mice per drug). Experimental sessions were conducted once every 1–2 weeks for 2 months per drug. Experimental sessions were spaced apart by at least 1 week to minimize the potential for tolerance to drug effects (Canal and Morgan [2012]; Darmani et al. [1990a]; de la Fuente Revenga et al. [2022]). Experiments were conducted during the light phase (1300–1700 local time; lights on = 0700 in a 12/12 light/dark cycle).
(§2) At 1–2 weeks prior to the beginning of experiments, mice were habituated to handling and receiving s.c. saline injections. On the day of an experiment, mice were acclimated to the testing room in their home cage for at least 30 min prior to the start of sessions. Prior to each session, mice were weighed, and resting body temperatures were recorded. Mice were then placed into experimental chambers for acclimation. Behavioral testing was carried out in TruScan mouse locomotor arenas equipped with photobeam arrays (Coulbourn Instruments, Holliston, MA, USA) that were modified with cylindrical inserts and transparent flooring to aid in semi-automated HTR detection as previously described (Glatfelter et al. [2022a]). After 5 min of acclimation, basal body temperature was recorded followed by s.c. injection of drug or vehicle, and mice were returned to test chambers for 30 min. Dose ranges for each drug were 0.03–10 mg/kg for DOI, 0.03–10 mg/kg for psilocybin, and 0.003–1 mg/kg for LSD. Mice were randomly assigned to specific doses at the beginning of the experiment and received different doses at each session.
(§3) During each session, locomotor activity was quantified via photobeam tracking of distance traveled in cm. Overhead GoPro Hero Black 7 video recordings (120 fps, 960p resolution) were analyzed using a commercially available software package from Clever Sys Inc. (Reston, VA, USA) for the measurement of HTR activity. Mouse body temperature was also collected post-session to calculate temperature change values (basal - post session temperature reading).
as §1

[3] = system: C57BL/6J mice; assay: Body temperature change in mice; assay type: in vivo, mouse; conditions: for Body Temp Δ (°C) Mean: post 30 min session
Description: All mice were injected s.c. with temperature transponders (14 × 2 mm, model IPTT-300, Avidity Science, Waterford Wisconsin, USA) under brief isoflurane immobilization, and were given at least 1 week to recover (Glatfelter et al. [2022b]). Mice were single housed post-implant, and for the duration of the experiments, to protect their devices from being removed by cage mates. Temperature was measured noninvasively using a handheld reader which is sensitive to the transponder signals.
as §2, §3, §1

[4] = system: C57BL/6J mice; assay: Locomotor activity (distance traveled) in mice; assay type: in vivo, mouse; conditions: for Locomotor Activity (cm) Mean: 30 min
Description: as §2, §3, §1

CCN(CC)C(=O)[C@@H]1C=C2c3cccc4[nH]cc(c34)C[C@H]2N(C)C1 [LSD, lysergic acid diethylamide]
Ki ([1]; 5-HT2A binding affinity (Ki), males and females, male and female mouse brain membranes, summary statement): 1 to 100 nM
Ki ([1]; [3H]M100907 Binding ♀ m5-HT2A Ki, female mouse brain membranes): 1.9 nM
Ki ([1]; [3H]M100907 Binding ♂ m5-HT2A Ki, male mouse brain membranes): 2.3 nM
HTR (total events) Mean ([2]; 0.003 mg/kg s.c., female mice): 6.5 total events
HTR (total events) Mean ([2]; 0.003 mg/kg s.c., male mice): 6.3 total events
HTR (total events) Mean ([2]; 0.003 mg/kg s.c., pooled sexes): 6.4 total events
HTR (total events) Mean ([2]; 0.01 mg/kg s.c., female mice): 10.7 total events
HTR (total events) Mean ([2]; 0.01 mg/kg s.c., male mice): 13.5 total events
HTR (total events) Mean ([2]; 0.01 mg/kg s.c., pooled sexes): 12.1 total events
HTR (total events) Mean ([2]; 0.03 mg/kg s.c., female mice): 24.2 total events
HTR (total events) Mean ([2]; 0.03 mg/kg s.c., male mice): 29.7 total events
HTR (total events) Mean ([2]; 0.03 mg/kg s.c., pooled sexes): 27.2 total events
HTR (total events) Mean ([2]; 0.1 mg/kg s.c., female mice): 43.5 total events
HTR (total events) Mean ([2]; 0.1 mg/kg s.c., male mice): 43.7 total events
HTR (total events) Mean ([2]; 0.1 mg/kg s.c., pooled sexes): 43.6 total events
HTR (total events) Mean ([2]; 0.3 mg/kg s.c., female mice): 55.8 total events
HTR (total events) Mean ([2]; 0.3 mg/kg s.c., male mice): 45.0 total events
HTR (total events) Mean ([2]; 0.3 mg/kg s.c., pooled sexes): 50.4 total events
HTR (total events) Mean ([2]; 1 mg/kg s.c., female mice): 38.0 total events
HTR (total events) Mean ([2]; 1 mg/kg s.c., male mice): 26.2 total events
HTR (total events) Mean ([2]; 1 mg/kg s.c., pooled sexes): 32.1 total events
ED50 ([2]; female mice, ascending limb of dose-response curve, read-out: HTR ♀ ED50 (95% CI)): 0.051 mg/kg
ED50 ([2]; male mice, ascending limb of dose-response curve, read-out: HTR ♂ ED50 (95% CI)): 0.024 mg/kg
ED50 ([2]; pooled male and female mice, read-out: HTR ♂+♀ ED50 (95% CI)): 0.035 mg/kg
Duration of HTR effect in the session ([2]; peak/active doses, 30 min session): trended to baseline levels by the end of the testing session
Time of peak effects on HTR post drug administration ([2]; s.c., both sexes, 30 min session): 5 to 10 min
HTR ♀ Emax (95% CI) ([2]; s.c., female mice, top of regression fit): 58 (50–68) HTR events
HTR ♂ Emax (95% CI) ([2]; s.c., male mice, top of regression fit): 46 (44–50) HTR events
HTR ♂+♀ Emax (95% CI) ([2]; s.c., pooled male and female mice): 51 (46–60) HTR events
Body Temp Δ (°C) Mean ([3]; 0.003 mg/kg s.c., female mice): -0.1 °C
Body Temp Δ (°C) Mean ([3]; 0.003 mg/kg s.c., male mice): -0.1 °C
Body Temp Δ (°C) Mean ([3]; 0.003 mg/kg s.c., pooled sexes): -0.1 °C
Body Temp Δ (°C) Mean ([3]; 0.01 mg/kg s.c., female mice): -0.1 °C
Body Temp Δ (°C) Mean ([3]; 0.01 mg/kg s.c., male mice): 0.3 °C
Body Temp Δ (°C) Mean ([3]; 0.01 mg/kg s.c., pooled sexes): 0.1 °C
Body Temp Δ (°C) Mean ([3]; 0.03 mg/kg s.c., female mice): -0.1 °C
Body Temp Δ (°C) Mean ([3]; 0.03 mg/kg s.c., male mice): 0.0 °C
Body Temp Δ (°C) Mean ([3]; 0.03 mg/kg s.c., pooled sexes): -0.1 °C
Body Temp Δ (°C) Mean ([3]; 0.1 mg/kg s.c., female mice): -0.3 °C
Body Temp Δ (°C) Mean ([3]; 0.1 mg/kg s.c., male mice): -0.1 °C
Body Temp Δ (°C) Mean ([3]; 0.1 mg/kg s.c., pooled sexes): -0.2 °C
Body Temp Δ (°C) Mean ([3]; 0.3 mg/kg s.c., female mice): -0.4 °C
Body Temp Δ (°C) Mean ([3]; 0.3 mg/kg s.c., male mice): -0.1 °C
Body Temp Δ (°C) Mean ([3]; 0.3 mg/kg s.c., pooled sexes): -0.2 °C
Body temperature effect at highest dose ([3]; 1 mg/kg s.c.): mild hypothermia
Body Temp Δ (°C) Mean ([3]; 1 mg/kg s.c., female mice): -0.9 °C
Body Temp Δ (°C) Mean ([3]; 1 mg/kg s.c., male mice): -1.5 °C
Body Temp Δ (°C) Mean ([3]; 1 mg/kg s.c., pooled sexes): -1.2 °C
Locomotor Activity (cm) Mean ([4]; 0.003 mg/kg s.c., female mice): 2499.8 cm
Locomotor Activity (cm) Mean ([4]; 0.003 mg/kg s.c., male mice): 2549.1 cm
Locomotor Activity (cm) Mean ([4]; 0.003 mg/kg s.c., pooled sexes): 2526 cm
Locomotor Activity (cm) Mean ([4]; 0.01 mg/kg s.c., female mice): 2581.2 cm
Locomotor Activity (cm) Mean ([4]; 0.01 mg/kg s.c., male mice): 2649.3 cm
Locomotor Activity (cm) Mean ([4]; 0.01 mg/kg s.c., pooled sexes): 2615 cm
Locomotor Activity (cm) Mean ([4]; 0.03 mg/kg s.c., female mice): 2977.4 cm
Locomotor Activity (cm) Mean ([4]; 0.03 mg/kg s.c., male mice): 2756.4 cm
Locomotor Activity (cm) Mean ([4]; 0.03 mg/kg s.c., pooled sexes): 2867 cm
Locomotor Activity (cm) Mean ([4]; 0.1 mg/kg s.c., female mice): 2290.0 cm
Locomotor Activity (cm) Mean ([4]; 0.1 mg/kg s.c., male mice): 2650.0 cm
Locomotor Activity (cm) Mean ([4]; 0.1 mg/kg s.c., pooled sexes): 2456 cm
Locomotor Activity (cm) Mean ([4]; 0.3 mg/kg s.c., female mice): 2309.5 cm
Locomotor Activity (cm) Mean ([4]; 0.3 mg/kg s.c., male mice): 2123.8 cm
Locomotor Activity (cm) Mean ([4]; 0.3 mg/kg s.c., pooled sexes): 2217 cm
Locomotor activity effect ([4]; 1 mg/kg s.c.): decreased locomotion
Locomotor Activity (cm) Mean ([4]; 1 mg/kg s.c., female mice): 2029.2 cm
Locomotor Activity (cm) Mean ([4]; 1 mg/kg s.c., male mice): 1571.6 cm
Locomotor Activity (cm) Mean ([4]; 1 mg/kg s.c., pooled sexes): 1800 cm
